Drawing on patent US20240131028A1, “CHEMOVACCINATION AGAINST PLASMODIUM INFECTION WITH SELECTIVE PLASMEPSIN X INHIBITORS” (Merck Sharp & Dohme LLC, priority 2021, published 2024), this text covers EC50 for 50 molecules.

The first assay deals with ring stage parasites (Pf). Kind of assay: Parasite lactate dehydrogenase (LDH) growth assay (Parasite Assay, PfLDH Assay). Type of assay: cell-based, P. falciparum. Conditions: Plasmodium falciparum, 72 h, Table 3; 72 hours growth, LDH readout; read-out: EC50.
Consider `COCC[C@H]([C@H]1C[C@@H]1C(=O)N[C@@H]1CC(C)(C)Oc2cccc(F)c21)N1C(=N)NC(C)(C)CC1=O` [Example 88B], for which the EC50 stood at 10 nM.

For the molecule `CC1(C)CC(=O)N(C[C@H]2C[C@@H]2C(=O)N[C@H]2CC(C)(C)Oc3ccc(C(F)(F)F)cc32)C(=N)N1` [Example 100], the EC50 was 170 nM.

Take `COCC[C@H]([C@H]1C[C@@H]1C(=O)NC1CC(C)(C)Oc2cc(F)ccc21)N1C(=N)NC(C)(C)CC1=O` (some centres unmarked) [Example 76A]: the EC50 amounted to 17 nM.

On to `CC1(C)CC(=O)N([C@H](c2cccnc2)[C@H]2C[C@@H]2C(=O)N[C@@H]2CC(C)(C)Oc3cccc(F)c32)C(=N)N1` [Example 86A], for which the EC50 was 2.2 nM.

Turning to `CC1(C)CC(=O)N([C@H](c2cccnc2)[C@H]2C[C@@H]2C(=O)N[C@H]2CC(C)(C)Oc3c(C(F)(F)F)ccc(F)c32)C(=N)N1` [Example 115B], the EC50 is 1 nM.

As to `COCC[C@H]([C@H]1C[C@@H]1C(=O)N[C@H]1CC(C)(C)Oc2ccc(C)cc21)N1C(=N)NC(C)(C)CC1=O` [Example 132], the EC50 came to 6.7 nM.

Regarding `CC[C@]1(C)CC(=O)N([C@@H](CCOC)[C@H]2C[C@@H]2C(=O)N[C@H]2C[C@H](C(F)(F)F)Oc3ccccc32)C(=N)N1` [Example 62A], the EC50 was 31 nM.

As to `CC1(C)CC(=O)N(C[C@H]2C[C@@H]2C(=O)N[C@H]2CC(C)(C)Oc3cccc(F)c32)C(=N)N1` [Example 87], the EC50 is 160 nM.

Regarding `CC1(C)CC(=O)N([C@H](c2cccnc2)[C@H]2C[C@@H]2C(=O)N[C@H]2CC(C)(C)Oc3ccc(Cl)cc32)C(=N)N1` [Example 120], the EC50 stood at 1 nM.

As to `CCC1(CC)CC(=O)N(C[C@H]2C(C)[C@@H]2C(=O)N[C@@H]2c3ccccc3C[C@H]2O)C(=N)N1` (some centres unmarked) [Example 33], the EC50 stood at 76 nM.

Take `CC1(C)CC(=O)N([C@H](c2cccc(C#N)c2)[C@H]2C[C@@H]2C(=O)N[C@H]2CC(C)(C)Oc3ccccc32)C(=N)N1` [Example 50]: the EC50 amounted to 3 nM.

Turning to `CCC1(C)CC(NC(=O)[C@H]2C[C@@H]2[C@@H](CCOC)N2C(=N)NC(C)(C)CC2=O)c2ccccc2O1` (some centres unmarked) [Example 75A], the EC50 amounted to 8.2 nM.

For the molecule `CCC1(CC)CC(=O)N(C[C@@H]2[C@@H](C(=O)N[C@H]3c4ccccc4OC(C)(C)[C@H]3O)C2(F)F)C(=N)N1` [Example 18A], the EC50 turned out to be 39 nM.

Consider `COc1cncc([C@H]([C@H]2C[C@@H]2C(=O)N[C@@H]2c3ccccc3OC(C)(C)[C@H]2O)N2C(=N)NC(C)(C)CC2=O)c1` [Example 42], for which the EC50 stood at 18.4 nM.

Consider `CCC1(CC)CC(=O)N([C@H](c2cccnc2)[C@H]2C[C@@H]2C(=O)N[C@H]2C[C@@H](C(F)(F)F)Oc3ccccc32)C(=N)N1` [Example 12], for which the EC50 stood at 0.9 nM.

On to `CC1(C)CC(=O)N([C@H](c2cccnc2)[C@H]2C[C@@H]2C(=O)NC2CC(C)(C)Oc3c(F)cc(F)cc32)C(=N)N1` (some centres unmarked) [Example 122A], for which the EC50 was determined as 2.3 nM.

On to `CC1(C)CC(=O)N([C@H](c2ccc(C#N)cc2)[C@H]2C[C@@H]2C(=O)N[C@@H]2c3ccccc3OC(C)(C)[C@H]2O)C(=N)N1` [Example 46], for which the EC50 came out at 2.5 nM.

Turning to `CC[C@]1(C)CC(=O)N([C@H](CCOC)[C@H]2C[C@@H]2C(=O)NC2CC(C)(C)Oc3ccc(OC(F)(F)F)cc32)C(=N)N1` (some centres unmarked) [Example 129A], the EC50 is 1.3 nM.

As to `CCC1(CC)CC(=O)N([C@@H](c2cccnc2)[C@@H]2[C@@H](C(=O)N[C@H]3CC(C)(C)Oc4ccccc43)C2(C)C)C(=N)N1` [Example 48B], the EC50 amounted to 7.4 nM.

Turning to `COc1cncc([C@H]([C@H]2C[C@@H]2C(=O)N[C@H]2CC(C)(C)Oc3ccccc32)N2C(=N)NC(C)(C)CC2=O)c1` [Example 40], the EC50 was 3.1 nM.

As for `CC1(C)CC(=O)N([C@H](c2cncc(Cl)c2)[C@H]2C[C@@H]2C(=O)N[C@H]2C[C@H](C(F)(F)F)Oc3ccccc32)C(=N)N1` [Example 60A], the EC50 worked out at 0.5 nM.

As to `COCC[C@H]([C@H]1C[C@@H]1C(=O)NC1CC2(CCC2)Oc2ccccc21)N1C(=N)NC(C)(C)CC1=O` (some centres unmarked) [Example 131A], the EC50 is 6.8 nM.

`COCC[C@H]([C@H]1C[C@@H]1C(=O)N[C@H]1CC(C)(C)Oc2c(F)cc(F)cc21)N1C(=N)NC(C)(C)CC1=O` [Example 113B]: the EC50 came out at 7.5 nM.

As for `Cc1ccc2c(c1)OC(C)(C)C[C@H]2NC(=O)[C@H]1C[C@@H]1[C@@H](c1cccnc1)N1C(=N)NC(C)(C)CC1=O` [Example 85B], the concentration giving a half-maximal response (EC50) stood at 0.9 nM.

As for `CC1(C)CC(=O)N(C[C@H]2C[C@@H]2C(=O)N[C@H]2CC(C)(C)Oc3cccc(Cl)c32)C(=N)N1` [Example 119], the EC50 was 26 nM.

For the molecule `CCC1(CC)CC(=O)N(C[C@H]2C[C@@H]2C(=O)N[C@@H]2CCOc3ccccc32)C(=N)N1` [Example 4B], the EC50 was determined as 26 nM.

In the case of `COc1cccc2c1C(NC(=O)[C@H]1C[C@@H]1[C@@H](c1cccnc1)N1C(=N)NC(C)(C)CC1=O)CC(C)(C)O2` (some centres unmarked) [Example 96A], the EC50 came out at 2.7 nM.

For `CC1(C)CC(=O)N([C@H](c2cncc(Cl)c2)[C@H]2C[C@@H]2C(=O)N[C@H]2CC(C)(C)Oc3ccccc32)C(=N)N1` [Example 58B], the EC50 was found to be 1 nM.

As to `CC1(C)CC(=O)N([C@H](c2cccc(C#N)c2)[C@H]2C[C@@H]2C(=O)N[C@@H]2c3ccccc3OC(C)(C)[C@H]2O)C(=N)N1` [Example 51], the EC50 amounted to 5.3 nM.

In the case of `CC1(C)CC(=O)N([C@H](c2ccc(C#N)cc2)[C@H]2C[C@@H]2C(=O)N[C@H]2C[C@H](C(F)(F)F)Oc3ccccc32)C(=N)N1` [Example 47B], the EC50 was found to be 0.9 nM.

Consider `CC(C)C1(C)CC(NC(=O)[C@H]2C[C@@H]2CN2C(=N)NC(C)(C)CC2=O)c2ccccc2O1` (some centres unmarked) [Example 79A], for which the EC50 was found to be 255 nM.

Regarding `COCC[C@H]([C@H]1C[C@@H]1C(=O)NC1CC(C)(C)Oc2ccc(OC(F)(F)F)cc21)N1C(=N)NC(C)(C)CC1=O` (some centres unmarked) [Example 126A], the EC50 stood at 4.7 nM.

Staying with this assay, now noted: Plasmodium falciparum, 72 h, Table 4; 72 hours growth, LDH readout; read-out: EC50 (Table 4).
Turning to `CCC1(CC)CC(=O)N([C@H](CCOC)[C@H]2C[C@@H]2C(=O)NC2CC(C)(C)Oc3cccc(Cl)c32)C(=N)N1` (some centres unmarked) [Example 149A], the EC50 came to 1 nM.

Still in this assay, the particulars now being: Table 3; 72 hours growth, LDH readout; read-out: EC50.
As for `CC[C@]1(C)CC(=O)N([C@H](CCOC)[C@H]2C[C@@H]2C(=O)NC2CC(C)(C)Oc3ccc(OC(F)(F)F)cc32)C(=N)N1` (some centres unmarked) [Example 129B], the EC50 was determined as 2.5 nM.

In the case of `CC(C)C1(C)CC(NC(=O)[C@H]2C[C@@H]2[C@@H](c2cccnc2)N2C(=N)NC(C)(C)CC2=O)c2ccccc2O1` (single isomer, unassigned) [Example 81D], the EC50 is 1.3 nM.

In the case of `COCC1(C)CC(NC(=O)[C@H]2C[C@@H]2[C@@H](c2cccnc2)N2C(=N)NC(C)(C)CC2=O)c2ccccc2O1` (single isomer, unassigned) [Example 108B], the EC50 turned out to be 3.7 nM.

As to `CCC1(CC)CC(=O)N(C(c2cccnc2)[C@H]2C(C)[C@@H]2C(=O)N[C@H]2C[C@H](C(F)(F)F)Oc3ccccc32)C(=N)N1` (single isomer, unassigned) [Example 55B], the EC50 is 180 nM.

Consider `CC[C@@]1(C)CC(=O)N(C(c2cncc(F)c2)[C@H]2C[C@@H]2C(=O)N[C@H]2CC(C)(C)Oc3ccc(F)cc32)C(=N)N1` (some centres unmarked) [Example 69E], for which the EC50 worked out at 300 nM.

On to `CC1C[C@H](NC(=O)[C@H]2C[C@@H]2CN2C(=N)NC(C)(C)CC2=O)c2cc(F)ccc2O1` (some centres unmarked) [Example 139B], for which the EC50 stood at 130 nM.

Turning to `CC1[C@H](C(c2cccnc2)N2C(=N)NC(C)(C)CC2=O)[C@H]1C(=O)N[C@H]1C[C@H](C(F)(F)F)Oc2ccccc21` (single isomer, unassigned) [Example 54A], the EC50 is 1 nM.

Regarding `CCC1(CC)CC(=O)N(C[C@H]2C(C)[C@@H]2C(=O)N[C@@H]2c3ccccc3OCC2(C)O)C(=N)N1` (single isomer, unassigned) [Example 35A], the EC50 stood at 85 nM.

Regarding `CCC1(CC)CC(=O)N(C[C@H]2C(C)[C@@H]2C(=O)N[C@@H]2c3ccccc3OC(C)(C)[C@H]2O)C(=N)N1` (single isomer, unassigned) [Example 30B], the EC50 is 7.7 nM.

For `CCC1(CC)CC(=O)N(C[C@H]2C(C)[C@@H]2C(=O)N[C@H]2CC(C)(C)Oc3ccccc32)C(=N)N1` (single isomer, unassigned) [Example 25B], the EC50 amounted to 25 nM.

Regarding `COCC[C@H]([C@H]1C[C@@H]1C(=O)NC1CC(C)(C(C)C)Oc2ccccc21)N1C(=N)NC(C)(C)CC1=O` (single isomer, unassigned) [Example 80A], the EC50 is 9.4 nM.

Take `CCC1(CC)CC(=O)N(C[C@H]2C(C)[C@@H]2C(=O)N[C@H]2CC(C)(C)Oc3ccccc32)C(=N)N1` (single isomer, unassigned) [Example 25A]: the EC50 worked out at 84 nM.

With `COc1ccc2c(c1)OC(C)(C)C[C@@H]2NC(=O)[C@H]1C[C@@H]1[C@H](c1cccnc1)N1C(=N)NC(C)(C)CC1=O` [Example 65A], the EC50 worked out at 2.8 nM.

The same assay, now with this note: Table 4; 72 hours growth, LDH readout; read-out: EC50 (Table 4).
Consider `CCC1(CC)CC(=O)N([C@H](CCOC)[C@H]2C[C@@H]2C(=O)NC2CC(C)(C)Oc3cc(Cl)ccc32)C(=N)N1` (single isomer, unassigned) [Example 147A], for which the EC50 was 2.8 nM.

On to `CCC1(CC)CC(=O)N(C(CC(C)OC)[C@H]2C[C@@H]2C(=O)N[C@H]2CC(C)(C)Oc3ccccc32)C(=N)N1` (single isomer, unassigned) [Example 142B], for which the EC50 was 0.7 nM.

As for `CCC1(CC)CC(=O)N([C@H](CCOC)[C@H]2C[C@@H]2C(=O)NC2CC(C)(C)Oc3cccc(Cl)c32)C(=N)N1` (some centres unmarked) [Example 149B], the EC50 worked out at 1.2 nM.

For `CCC1(CC)CC(=O)N([C@H](CCOC)[C@H]2C[C@@H]2C(=O)NC2CC(C)(C)Oc3c(Cl)cccc32)C(=N)N1` (some centres unmarked) [Example 148B], the EC50 worked out at 1.9 nM.
